The results in this text go back to US20090298820A1, “3-SUBSTITUTED-1H-PYRROLO[2,3-B]PYRIDINE AND 3-SUBSTITUTED-1H-PYRROLO[3,2-B]PYRIDINE COMPOUNDS, THEIR USE AS MTOR KINASE AND PI3 KINASE INHIBITORS, AND THEIR SYNTHESES” (Wyeth, priority 2008, published 2009).

Molecules are shown by their SMILES. Read-outs that look alike come from different tables or passages of the source.

Data set [1] concerns the target PI3Kγ (Homo sapiens, UniProt P48736). The experiment in a line: PI3K-gamma fluorescence polarization assay. The data set is classed as biochemical. The following applies: read-out: PI3Kγ Median IC50.
Data set [2] concerns the target PI3Kα (Homo sapiens, UniProt P42336). Kind of data set: PI3K-alpha fluorescence polarization assay. Type of data set: biochemical. The following applies: read-out: PI3Kα Median IC50.
The target in data set [3] is mTOR (Homo sapiens, UniProt P42345). The experiment in a line: mTOR enzyme assay (DELFIA format, His6-S6K substrate). Type of data set: biochemical.
Setting [4] is: read-out: mTOR Kinase Median IC50.

Sequence of PI3Kγ (P48736 whole entry, species assumed): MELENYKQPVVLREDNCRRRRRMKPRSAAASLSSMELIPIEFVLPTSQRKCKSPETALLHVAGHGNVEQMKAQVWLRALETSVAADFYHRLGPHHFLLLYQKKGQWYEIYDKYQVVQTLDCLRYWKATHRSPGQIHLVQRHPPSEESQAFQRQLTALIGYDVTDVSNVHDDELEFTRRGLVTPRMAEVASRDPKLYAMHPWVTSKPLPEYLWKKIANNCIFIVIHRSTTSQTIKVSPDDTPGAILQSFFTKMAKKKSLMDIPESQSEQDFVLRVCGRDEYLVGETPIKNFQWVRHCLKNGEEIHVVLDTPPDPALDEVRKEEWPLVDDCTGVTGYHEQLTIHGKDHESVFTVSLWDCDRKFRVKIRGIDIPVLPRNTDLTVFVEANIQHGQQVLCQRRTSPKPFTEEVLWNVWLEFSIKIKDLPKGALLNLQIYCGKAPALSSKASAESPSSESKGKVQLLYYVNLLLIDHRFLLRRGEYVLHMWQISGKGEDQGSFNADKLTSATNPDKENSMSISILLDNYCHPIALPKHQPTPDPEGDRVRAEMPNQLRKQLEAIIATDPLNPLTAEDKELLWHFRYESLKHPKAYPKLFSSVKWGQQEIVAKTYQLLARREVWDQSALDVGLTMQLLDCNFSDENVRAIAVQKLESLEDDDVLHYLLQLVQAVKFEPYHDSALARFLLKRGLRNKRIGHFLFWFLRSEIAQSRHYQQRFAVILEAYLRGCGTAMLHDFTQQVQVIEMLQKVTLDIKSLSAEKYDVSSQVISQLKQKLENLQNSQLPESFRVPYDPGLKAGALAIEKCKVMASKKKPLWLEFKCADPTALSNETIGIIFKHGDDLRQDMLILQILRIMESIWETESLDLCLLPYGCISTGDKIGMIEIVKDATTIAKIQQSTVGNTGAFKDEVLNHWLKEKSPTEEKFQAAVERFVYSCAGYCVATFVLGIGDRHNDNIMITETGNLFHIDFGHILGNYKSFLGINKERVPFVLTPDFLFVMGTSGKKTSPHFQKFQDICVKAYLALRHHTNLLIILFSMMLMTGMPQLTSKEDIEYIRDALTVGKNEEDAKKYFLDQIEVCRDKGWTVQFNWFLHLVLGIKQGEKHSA
Sequence of PI3Kα (P42336 whole entry, species assumed): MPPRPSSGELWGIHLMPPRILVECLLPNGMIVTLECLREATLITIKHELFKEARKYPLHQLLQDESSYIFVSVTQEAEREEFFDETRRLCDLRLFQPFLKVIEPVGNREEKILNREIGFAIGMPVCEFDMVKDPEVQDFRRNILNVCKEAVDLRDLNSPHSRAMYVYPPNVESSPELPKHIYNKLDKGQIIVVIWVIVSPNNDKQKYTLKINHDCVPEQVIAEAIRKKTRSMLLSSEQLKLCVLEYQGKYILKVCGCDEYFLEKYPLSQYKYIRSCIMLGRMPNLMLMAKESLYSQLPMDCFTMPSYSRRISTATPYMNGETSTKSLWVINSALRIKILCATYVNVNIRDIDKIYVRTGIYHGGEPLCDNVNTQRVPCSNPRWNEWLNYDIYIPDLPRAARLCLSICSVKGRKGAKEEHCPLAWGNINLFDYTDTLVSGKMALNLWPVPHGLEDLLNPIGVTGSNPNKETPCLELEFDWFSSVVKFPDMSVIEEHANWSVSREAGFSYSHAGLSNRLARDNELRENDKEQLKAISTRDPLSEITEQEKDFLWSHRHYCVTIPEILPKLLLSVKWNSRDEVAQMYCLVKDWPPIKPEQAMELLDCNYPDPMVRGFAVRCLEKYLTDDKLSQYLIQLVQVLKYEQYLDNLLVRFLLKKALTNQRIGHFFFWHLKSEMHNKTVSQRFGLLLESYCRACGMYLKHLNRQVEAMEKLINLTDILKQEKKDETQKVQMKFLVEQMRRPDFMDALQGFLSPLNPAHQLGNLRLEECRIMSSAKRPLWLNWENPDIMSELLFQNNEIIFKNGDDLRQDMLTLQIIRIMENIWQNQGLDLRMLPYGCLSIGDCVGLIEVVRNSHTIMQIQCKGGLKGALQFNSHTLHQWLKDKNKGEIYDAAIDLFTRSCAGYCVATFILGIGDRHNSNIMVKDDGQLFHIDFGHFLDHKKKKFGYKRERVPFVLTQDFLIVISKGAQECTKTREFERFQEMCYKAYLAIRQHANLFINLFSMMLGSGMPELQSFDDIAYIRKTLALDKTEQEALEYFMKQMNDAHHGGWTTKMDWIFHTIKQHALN
Sequence of PI3Kα (P27986 whole entry partner, species assumed): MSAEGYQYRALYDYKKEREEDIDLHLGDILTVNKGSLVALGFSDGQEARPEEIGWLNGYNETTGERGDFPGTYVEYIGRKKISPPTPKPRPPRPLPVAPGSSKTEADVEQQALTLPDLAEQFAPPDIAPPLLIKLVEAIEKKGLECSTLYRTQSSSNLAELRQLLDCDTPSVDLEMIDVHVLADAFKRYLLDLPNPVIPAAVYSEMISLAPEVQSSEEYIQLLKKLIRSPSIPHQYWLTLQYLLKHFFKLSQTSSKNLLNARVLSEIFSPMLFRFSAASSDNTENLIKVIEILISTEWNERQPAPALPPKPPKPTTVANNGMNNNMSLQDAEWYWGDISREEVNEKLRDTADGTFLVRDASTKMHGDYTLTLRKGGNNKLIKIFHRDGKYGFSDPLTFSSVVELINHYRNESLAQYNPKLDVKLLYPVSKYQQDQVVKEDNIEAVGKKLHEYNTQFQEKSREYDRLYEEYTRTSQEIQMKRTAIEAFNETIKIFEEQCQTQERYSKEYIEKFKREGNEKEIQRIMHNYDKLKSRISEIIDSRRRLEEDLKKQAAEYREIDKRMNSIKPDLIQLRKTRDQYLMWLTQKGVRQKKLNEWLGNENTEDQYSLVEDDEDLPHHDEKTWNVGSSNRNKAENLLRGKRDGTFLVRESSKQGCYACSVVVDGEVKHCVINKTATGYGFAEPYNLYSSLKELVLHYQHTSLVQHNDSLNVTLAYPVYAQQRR

In general, melting point refers to the temperature, or range, at which the solid turns liquid. What is called IC50 is the midpoint of a concentration-inhibition curve. On to `Cn1cc(/C=C2\Oc3ccc(NC(=O)Nc4cccnc4)cc3C2=O)c2c(N3CC4CCC3CO4)ccnc21` (stereo not drawn) [Compound 277, 1-[(2Z)-2-{[1-methyl-4-(2-oxa-5-azabicyclo[2.2.2]oct-5-yl)-1H-pyrrolo[2,3-b]pyridin-3-yl]methylidene}-3-oxo-2,3-dihydro-1-benzofuran-5-yl]-3-pyridin-3-ylurea], for which the melting point fell in the range of 227 to 235 °C. In addition, the half-inhibitory concentration (IC50) in data set [1] came to 2590 nM. The IC50 in data set [2] was determined as 296 nM. Further, the concentration for half-maximal inhibition (IC50) in data set [3] (setting [4]) was 7.5 nM.
On to `CNC(=O)Nc1ccc2c(c1)C(=O)/C(=C/c1cn(C)c3nccc(N4CC5CCC4CO5)c13)O2` (stereo not drawn) [Compound 279, 1-methyl-3-[(2Z)-2-{[1-methyl-4-(2-oxa-5-azabicyclo[2.2.2]oct-5-yl)-1H-pyrrolo[2,3-b]pyridin-3-yl]methylidene}-3-oxo-2,3-dihydro-1-benzofuran-5-yl]urea], for which the melting point was 197 to 205 °C (dec.). Further, in data set [1], the IC50 was found to be 643 nM. Also, in data set [2], the IC50 stood at 128 nM. Moreover, in data set [3] (setting [4]), the IC50 turned out to be 11 nM.
Turning to `Cn1cc(/C=C2\Oc3ccc(NC(=O)Nc4cccnc4)cc3C2=O)c2c(N3C4CCC3COC4)ccnc21` [Compound 280, 1-[(2Z)-2-{[1-methyl-4-(3-oxa-8-azabicyclo[3.2.1]oct-8-yl)-1H-pyrrolo[2,3-b]pyridin-3-yl]methylidene}-3-oxo-2,3-dihydro-1-benzofuran-5-yl]-3-pyridin-3-ylurea], the melting point was 250 to 255 °C (dec.). Further, the IC50 in data set [1] was 995 nM. Further, in data set [2], the IC50 amounted to 179 nM. In data set [3], this molecule gave an IC50 of 42 nM.
For the molecule `CNC(=O)Nc1ccc2c(c1)C(=O)/C(=C/c1cn(C)c3nccc(N4C5CCC4COC5)c13)O2` [Compound 281, 1-methyl-3-[(2Z)-2-{[1-methyl-4-(3-oxa-8-azabicyclo[3.2.1]oct-8-yl)-1H-pyrrolo[2,3-b]pyridin-3-yl]methylidene}-3-oxo-2,3-dihydro-1-benzofuran-5-yl]urea], the melting point is 226 to 232 °C (dec.). Also, in data set [1], the IC50 was 1710 nM. In data set [2], the IC50 was 104 nM. Besides, the IC50 in data set [3] (setting [4]) stood at 31 nM.
For `Cn1cc(/C=C2\Oc3ccc(NC(=O)Nc4cccnc4)cc3C2=O)c2c(N3CC4COC(C3)O4)ccnc21` (stereo not drawn) [Compound 282, 1-[(2Z)-2-{[4-(6,8-dioxa-3-azabicyclo[3.2.1]oct-3-yl)-1-methyl-1H-pyrrolo[2,3-b]pyridin-3-yl]methylidene}-3-oxo-2,3-dihydro-1-benzofuran-5-yl]-3-pyridin-3-ylurea] the same measures were 224 to 227 °C (dec.), 642 nM, 288 nM and 21 nM.
For the molecule `Cn1cc(/C=C2\Oc3ccc(NC(=O)Nc4cccnc4)cc3C2=O)c2c(N3CC4CC3CO4)ccnc21` (stereo not drawn) [Compound 283, 1-[(2Z)-2-{[1-methyl-4-(2-oxa-5-azabicyclo[2.2.1]hept-5-yl)-1H-pyrrolo[2,3-b]pyridin-3-yl]methylidene}-3-oxo-2,3-dihydro-1-benzofuran-5-yl]-3-pyridin-3-ylurea], the melting point was 218 to 222 °C (dec.). Moreover, in data set [1], the IC50 turned out to be 779 nM. Moreover, in data set [2], the IC50 turned out to be 350 nM. The IC50 in data set [3] (setting [4]) is 27 nM.
Consider `CNC(=O)Nc1ccc2c(c1)C(=O)/C(=C/c1cn(C)c3nccc(N4CC5CC4CO5)c13)O2` (stereo not drawn) [Compound 284, 1-methyl-3-[(2Z)-2-{[1-methyl-4-(2-oxa-5-azabicyclo[2.2.1]hept-5-yl)-1H-pyrrolo[2,3-b]pyridin-3-yl]methylidene}-3-oxo-2,3-dihydro-1-benzofuran-5-yl]urea], for which the melting point is 242 to 247 °C (dec.). Besides, in data set [1], the IC50 stood at 721 nM. Moreover, the half-inhibitory concentration (IC50) in data set [2] stood at 275 nM. In addition, the IC50 in data set [3] (setting [4]) was determined as 50 nM.
Molecule `Cn1cc(/C=C2\Oc3ccc(NC(=O)Nc4cccnc4)cc3C2=O)c2c(N3CCC(C(=O)N4C5CCC4COC5)CC3)ccnc21` [Compound 292, 1-[(2Z)-2-({1-methyl-4-[4-(3-oxa-8-azabicyclo[3.2.1]oct-8-ylcarbonyl)piperidin-1-yl]-1H-pyrrolo[2,3-b]pyridin-3-yl}methylidene)-3-oxo-2,3-dihydro-1-benzofuran-5-yl]-3-pyridin-3-ylurea] displayed a melting point of 197 to 203 °C. The IC50 in data set [1] was over 10000 nM. Moreover, in data set [2], the IC50 turned out to be 3480 nM. Moreover, the IC50 in data set [3] (setting [4]) is 5.4 nM.
On the same counts, the results for `Cn1cc(/C=C2\Oc3ccc(NC(=O)Nc4cccnc4)cc3C2=O)c2c(N3CC4CNCC(C3)O4)ccnc21` [Compound 293, 1-[(2Z)-2-{[1-methyl-4-(9-oxa-3,7-diazabicyclo[3.3.1]non-3-yl)-1H-pyrrolo[2,3-b]pyridin-3-yl]methylidene}-3-oxo-2,3-dihydro-1-benzofuran-5-yl]-3-pyridin-3-ylurea] are 193 to 200 °C, 862 nM, over 10000 nM and 300 nM.
For `CCC1(CC)CN(c2ccnc3c2c(/C=C2\Oc4ccc(NC(=O)Nc5cccnc5)cc4C2=O)cn3C)CCO1` [Compound 295, 1-[(2Z)-2-{[4-(2,2-diethylmorpholin-4-yl)-1-methyl-1H-pyrrolo[2,3-b]pyridin-3-yl]methylidene}-3-oxo-2,3-dihydro-1-benzofuran-5-yl]-3-pyridin-3-ylurea] the same measures were 225 to 228 °C, 1230 nM, 721 nM and 21.5 nM.
On the same counts, the results for `C[C@@H]1CN(c2ccnc3c2c(/C=C2\Oc4ccc(NC(=O)Nc5cccnc5)cc4C2=O)cn3C)C[C@H](C)O1` [Compound 296, 1-[(2Z)-2-({4-[(2R,6S)-2,6-dimethylmorpholin-4-yl]-1-methyl-1H-pyrrolo[2,3-b]pyridin-3-yl}methylidene)-3-oxo-2,3-dihydro-1-benzofuran-5-yl]-3-pyridin-3-ylurea] are 255 to 260 °C, 1160 nM, 239 nM and 19 nM.
`COCCC1CN(c2ccnc3c2c(/C=C2\Oc4ccc(NC(=O)Nc5cccnc5)cc4C2=O)cn3C)CCO1` (stereo not drawn) [Compound 297, 1-[(2Z)-2-({4-[2-(2-methoxyethyl)morpholin-4-yl]-1-methyl-1H-pyrrolo[2,3-b]pyridin-3-yl}methylidene)-3-oxo-2,3-dihydro-1-benzofuran-5-yl]-3-pyridin-3-ylurea] returned a melting point of 225 to 260 °C. In addition, the half-inhibitory concentration (IC50) in data set [1] came to 1930 nM. Besides, the IC50 in data set [2] is 884 nM. The IC50 in data set [3] (setting [4]) was 25.5 nM.
`Cn1cc(/C=C2\Oc3ccc(NC(=O)Nc4cccnc4)cc3C2=O)c2c(N3CCOC(C)(C)C3)ccnc21` [Compound 301, 1-[(2Z)-2-{[4-(2,2-dimethylmorpholin-4-yl)-1-methyl-1H-pyrrolo[2,3-b]pyridin-3-yl]methylidene}-3-oxo-2,3-dihydro-1-benzofuran-5-yl]-3-pyridin-3-ylurea] showed a melting point of 222 to 226 °C. Besides, the 50% inhibitory concentration (IC50) in data set [1] was found to be 1110 nM. Further, the IC50 in data set [2] was determined as 566 nM. Further, in data set [3] (setting [4]), the IC50 was 13 nM.
On the same counts, the results for `C[C@@H]1CN(C(=O)C2CCN(c3ccnc4c3c(/C=C3\Oc5cccc(O)c5C3=O)cn4C)CC2)C[C@H](C)O1` [Compound 302, (2Z)-2-{[4-(4-{[(2R,6S)-2,6-dimethylmorpholin-4-yl]carbonyl}piperidin-1-yl)-1-methyl-1H-pyrrolo[2,3-b]pyridin-3-yl]methylidene}-4-hydroxy-1-benzofuran-3(2H)-one] are 162 to 166 °C, 396 nM, 223 nM and 3.2 nM.
Regarding `C[C@@H]1CN(C(=O)c2ccc(-c3ccnc4c3c(/C=C3\Oc5cccc(O)c5C3=O)cn4C)cc2)C[C@H](C)O1` [Compound 303, (2Z)-2-{[4-(4-{[(2R,6S)-2,6-dimethylmorpholin-4-yl]carbonyl}phenyl)-1-methyl-1H-pyrrolo[2,3-b]pyridin-3-yl]methylidene}-4-hydroxy-1-benzofuran-3(2H)-one], the melting point lay within 262 to 270 °C. Besides, the IC50 in data set [1] turned out to be 98 nM. Further, the IC50 in data set [2] came to 75 nM. In addition, in data set [3] (setting [4]), the IC50 came out at 2.3 nM.
For `COCCN1CCN(C(=O)c2ccc(-c3ccnc4c3c(/C=C3\Oc5cccc(O)c5C3=O)cn4C)cc2)CC1` [Compound 304, (2Z)-4-hydroxy-2-{[4-(4-{[4-(2-methoxyethyl)piperazin-1-yl]carbonyl}phenyl)-1-methyl-1H-pyrrolo[2,3-b]pyridin-3-yl]methylidene}-1-benzofuran-3(2H)-one], the melting point lay within 118 to 122 °C. The IC50 in data set [1] is 312 nM. In addition, the IC50 in data set [2] was 109 nM. Further, the IC50 in data set [3] (setting [4]) is 1.5 nM.
For `COCCC1CN(C(=O)c2ccc(-c3ccnc4c3c(/C=C3\Oc5cccc(O)c5C3=O)cn4C)cc2)CCO1` (stereo not drawn) [Compound 305, (2Z)-4-hydroxy-2-{[4-(4-{[2-(2-methoxyethyl)morpholin-4-yl]carbonyl}phenyl)-1-methyl-1H-pyrrolo[2,3-b]pyridin-3-yl]methylidene}-1-benzofuran-3(2H)-one] the same measures were 154 to 160 °C, 38 nM, 65 nM and 1 nM.
`Cn1cc(/C=C2\Oc3cccc(O)c3C2=O)c2c(N3CCC(C(=O)N4CC5CCC(C4)O5)CC3)ccnc21` [Compound 306, (2Z)-4-hydroxy-2-({1-methyl-4-[4-(8-oxa-3-azabicyclo[3.2.1]oct-3-ylcarbonyl)piperidin-1-yl]-1H-pyrrolo[2,3-b]pyridin-3-yl}methylidene)-1-benzofuran-3(2H)-one] came in with a melting point of 264 to 268 °C. Also, the IC50 in data set [1] turned out to be 131 nM. In addition, in data set [2], the IC50 turned out to be 51 nM. Moreover, the IC50 in data set [3] (setting [4]) turned out to be 2 nM.
